Data reported in patent publication US3976672A, “(Hydrocarbylphenylsulfonyl)alkyltrimethylstannanes” (priority 1975, dated 1976).

Key:
[1] = system: corn leaf aphids Rhopalosiphum maidis (Fitch); assay: Aphid Contact Test; type: in vivo; conditions: 1000 PPM spray, barley, 5 days
Description: Test formulations were prepared for spraying at 1000 ppm (parts per million) concentration by dissolving them in a small amount of acetone and adding a suitable wetting agent. Typically, […] of organotin compound was dissolved (or suspended) in 10 ml of acetone, 2 drops of Triton-X100 wetting agent (octylphenoxy polyethoxy ethanol with 9-10 mole percent of polyethylene oxide) were added and this was suspended in 300 ml of water make a 6000 ppm suspension. An aliquot was then further diluted with distilled water to 1000 ppm concentration of organotin compound.
Eight to ten day old barley seedlings, grown ten plants each in a 12 oz. cup, were infested with corn leaf aphids Rhopalosiphum maidis (Fitch), two days prior to treatment. Two pots were treated with each formulation by spraying with a spray atomizer while the plants were rotating on a turntable. Following treatment, the plants were held for 5 days in the greenhouse. At the end of this period, the percent control of the aphids was estimated based on the reduction of the population density as compared to untreated plants used as controls.

[2] = system: tobacco bud worm, Heliothis virescens (Fabricius); assay: Tobacco Bud Worm Diet Test; type: in vivo; conditions: 1000 PPM, one week, Abbott-adjusted, 10080 min
Description: Test formulations were prepared at 1000 ppm as in B, the Aphid Contact Test, above. Two-tenths ml of the diluted formulations was pipetted onto the surface of 5 grams of a synthetic diet mixture held in partially filled cells of a plastic jelly tray. Five cells were treated with each chemical dilution. The diet mixture was a modified Vanderzant diet consisting of wheat germ, soy flour, agar, sugar, salts, vitamins, preservatives and water. The jelly trays had fifty cavities per sheet, each cavity being approximately 2.5 × 4.0 × 1.5 cm.
Following treatment, a third or early fourth instar larva of the tobacco bud worm, Heliothis virescens (Fabricius), was placed in each cell. The trays were then covered with a plastic film plus a sheet of rigid plastic and were held in an incubator at 80° F.
At the end of one week, the trays were examined and the percent control was determined, adjusted for any natural mortality in the controls by Abbott's formula. The trays were held an additional week and any abnormalities in the development of the survivors was noted.
(§1) F. Abbott's Formula: [formula]

[3] = system: cotton boll weevils, Anthonomous grandis Boheman; assay: Cotton Boll Weevil Test; type: in vivo; conditions: for % Control Cotton Boll Weevil: 1000 PPM, cotton seedlings, five days, Abbott-corrected, 7200 min; for Boll Weevil % Feeding Reduced on Cotton: 1000 ppm, visual comparison of feeding damage
Description: Formulations were prepared at 1000 ppm as in B, the Aphid Contact Test, above. Cotton seedlings 12 to 14 days old grown in 12 oz cups were used. Two pots were treated with each formulation by spraying with a spray atomizer while rotating the pots on a turntable. Five adult cotton boll weevils, Anthonomous grandis Boheman, were placed in each pot following treatment and were caged by covering the pots with an inverted 16 oz styrofoam cup with small perforations punched in the bottom. The surviving weevils were counted after five days in the greenhouse to determine the percent control, corrected for any natural mortality in the control plants by Abbott's formula. The percent reduction in feeding was estimated by visual comparison of the feeding damage to the treated plants with the control (untreated) plants.
as §1

[4] = system: yellow fever mosquito, Aedes aegypti (Linnaeus); type: in vivo; conditions: 1 PPM, 72 hours
Description: Formulations were prepared by dissolving 30 mg of organotin compound of the invention in 10 ml of acetone. This solution was then diluted to 1 ppm with water. Two 25-ml aliquots were placed in test tubes to which were added 10 to 25 fourth instar larvae of the yellow fever mosquito, Aedes aegypti (Linnaeus). The tubes were held in darkness for 72 hours. At the end of this period the percent control was determined.

[5] = system: adult mites, urticae Koch; assay: Mite One-Day Residual Test (Example 8); type: in vivo; conditions: 500 PPM, cotton, six days after infestation; 8640 min
Description: Test compounds were prepared as in B, the Aphid Contact Test, above but were further diluted to 500 ppm with water.
Cotton, in the second primary leaf stage grown in twelve ounce cups under greenhouse conditions at 70°-75° F., was used in the test.
one plant (two primary leaves) in one pot was used for each replicate; two replicates were used for each concentration of organotin compound tested.
The plants were sprayed with the dispersions using a small spray atomizer to throughly drench the foliage.
One day following treatment, a circle of tree tanglefoot was placed on the upper surface of the treated leaves and adult mites, urticae Koch, were transferred into this confinement.
Six days following infestation with mites, the plants were examined for adult live mites remaining on the leaves. On an estimation basis in comparison with the number of living mites on the control plants, the percent control was determined.

[6] = Hydrolysis in humid air (81% humidity chamber); type: physicochemical
Text: A. The compound subjected to humid air was a typical Peterson compound, phenylsulfonylmethyltrimethylstannane, [formula] A 5 gal. jar was set on its side on a wooden support and contained a wire mesh screen to support samples in test over a mixture of 152 g of (NH4)2 SO4 in 168 g of H2 O. An excess of (NH4)2 SO4 in contact with a saturated aqueous solution of (NH4)2 SO4 gives 81% humidity in a closed space.^1 The following samples of this Peterson compound were weighted into 40 mm O.D. petri dishes (minus cover) of 8 mm depth and the dishes placed into the humidity chamber, and the chamber was then closed: No. 15 dish 0.2186 g; No. 34 dish 0.2006 g. Before the samples were removed from the balance, a solid crust began forming on the surface of the liquid and, inside of ten minutes, covered all of the liquid surface. An odor of a volatile trimethyltin compound was noted. When the samples were placed in the humidity chamber, the samples coated almost all of the surface area inside the dishes. The 5 gal. jar was set on the bench under normal laboratory lighting. The initial temperature inside the chamber was 24.5° C. Over 4 days, the temperature ranged from the initial temperature as a high to a low temperature of 18° C. The No. 15 sample was removed after 4 days. Under the surface crust, there was an oily solid. The sample was scraped with a spatula into a 2 dram sample vial. The oily solid remaining was washed into the vial with chloroform (about 0.5 to 1 ml). The chloroform was removed under a stream of nitrogen. The No. 34 sample was removed from the chamber after 7 days. The sample was completely solid and was scraped into a vial.
at 307 Hz and a broadened singlet flanked by satellites at 36.5 Hz for (CH3)3 Sn and a broadened singlet at 191 Hz for the OH.
B. A corresponding compound, closely related to the compounds of this invention, phenylsulfonylethyltrimethylstannane, [formula] was subjected to similar humidity conditions in the same equipment. […]

[7] = Thermal stability on distillation; type: physicochemical; conditions: at the temperature required to distill the starting sulfone
Description: The pot residue, a black brittle glass when cooled, weighed 16.2 g. The cuts were analyzed by (glpc) gas-liquid phase chromatography using a 6 feet × 1/8 inch column packed with 10% of silicone gum rubber on silanized diatomaceous earth at a column temperature of 260° C. […] There also was a more volatile component which increased in amount in each successive cut. The latter observation accompanied by a gradual loss in vacuum is usually associated with some thermal decomposition. Cuts No. 2 and No. 3 were combined for a second distillation using a vacuum jacketed vigreaux column. One cut was obtained, b.p. 43°-125° C. […] The vigreaux column was replaced by a short-path head and a third distillation was run on the pot residue. The following cuts were taken:
A sample of Cut No. 1 was analyzed by nuclear magnetic resonance spectroscopy (NMR). […] In summary, the product could only be obtained as a mixture with the starting sulfone despite three distillation attempts to separate the mixture.

[8] = cited from earlier work
[9] = system: adult mites, Tetranychus urticae koch; assay: Mite one-day residual test, comparative (Table VII); type: in vivo; conditions: 3 days after loading mites, 85° F.
Description: Cotton in the second primary leaf stage, grown in twelve ounce cups under greenhouse conditions at 70°-75° F. was used in this test. One plant (two primary leaves) in one pot was used for each replicate and two replicates were used for each concentration of tin compound tested. Test formulations were prepared by dissolving 50 mg of tin compound in one ml of acetone, adding one drop of Emulfor 719, a commercial surface-activedispersing agent (polyoxyethylated vegetable oil) and suspended in 50 ml of water for concentration of 1000 ppm (parts per million). Aliquots of this solution were further diluted with distilled water to concentrations of 100, 20 and 5 ppm. The plants were sprayed with the formulations using a small spray atomizer to thoroughly drench the foliage. One day following treatment, a circle of tree tanglefoot was placed on the upper surfaces of the treated leaves and adult mites, Tetranychus urticae koch, were transferred into this confinement. Counts of these mites were made immediately following transfer and again six days later.
The mite one-day residual test differed as follows from that set forth in Example 9. The plants were held in a growth chamber maintained at 85° F., and were exposed to high intensity fluorescent lights for 14 hour days. The recorded observations were made 3 days after loading the mites.
(§2) The 3-day tobacco bud worm test on cotton differed as follows from that set forth in Example 10. The plants used were 3 weeks old, and were covered with cheesecloth during the test. Six replicates were used for each test compound, with 1 worm per plant. The plants were infested with larva 3 days after the spray application and the recorded observations were made 6 days after the spray application.

[10] = system: tobacco bud worm, Heliothis virescens (Fabricius); assay: 3-day tobacco bud worm test on cotton, comparative (Table VII); type: in vivo; conditions: 6 days after spray
Description: Tesst formulations were prepared by dissolving 50 mg of organotin compound of the invention in one ml of acetone, adding one drop of Emulfor 719, a commercial surface-active dispersing agent (polyoxyethylated vegetable oil) and suspending in 50 m1 of water for a concentration of 1000 ppm (parts per million). Aliquots of the solution were further diluted with distilled water to concentrations of 100, 20 and 5 ppm.
Cotton seedlings two weeks old were used. These were grown in 12 ounce cups with two plants in each cup. The diluted formulations were applied to the seedling plants with a spray atomizer and allowed to dry. Three cups were treated with each diluted formulation. A third instar larvae of the tobacco bud worm, Heliothis virescens (Fabricius). was placed in each cup and confined by inverting a perforated 16 oz. styrofoam cup over the top. Percent control of the worms and amount of feeding damage to the plants was determined after two weeks in the greenhouse.
as §2

| Compound | % Control Aphids [1] | % Control Tobacco Bud Worm [2] | % Control Cotton Boll Weevil [3] | Boll Weevil % Feeding Reduced on Cotton [3] | % Control Mosquito Larvae [4] | % Control Mite One-Day Residual [5] | also measured |
| --- | --- | --- | --- | --- | --- | --- | --- |
| 2-(p-dodecylphenylsulfonyl)ethyltrimethylstannane [Compound 11] | 90% | 100% | 100% | 50% | 100% | 100% |  |
| 2-Thioacetoxyethyltri-n-butyltin | 95% | 20% | 40% | 90% | 55% | 80% |  |
| C[CH](S(=O)(=O)c1ccc(C(C)(C)C)cc1)[Sn]([CH3])([CH3])[CH3] (stereo not drawn) [1-[p-t-butylphenylsulfonyl]ethyltrimethylstannane] |  |  |  |  |  |  | hydrolysis deficiencies ([6]; comparison with the Peterson compound): suffers from the same hydrolysis deficiencies as does the Peterson compound |
| CC(C)(C)c1ccc(S(=O)(=O)[CH2][Sn]([CH3])([CH3])[CH3])cc1 [4-t-butylphenylsulfonylmethyltrimethylstannane] |  |  |  |  |  |  | thermal instability [7]: thermal instability of the product at the temperature required to distill the starting sulfone |
| CCC[CH2][Sn]([CH2]CCC)([CH2]CCC)[CH2]S(=O)(=O)c1ccccc1 [[(Phenylsulfonyl)methyl]tributyltin] |  |  |  |  |  |  | reactivity toward carbon dioxide and oxygen ([8]; room temperature): unreactive toward carbon dioxide and oxygen at room temperature; decomposition to phenyl methyl sulfone and tributyltin oxide on exposure of a thin layer to air ([8]; within four days, 5760 min): ca. 50% |
| [CH3][Sn]([CH3])([CH3])[CH2]CS(=O)(=O)c1ccccc1 [trimethylphenylsulfonylethylstannane, phenylsulfonylethyltrimethylstannane] |  |  |  |  |  |  | hydrolysis in humid air (infrared, NMR) ([6]; 81% humidity, 27° C./room temperature, 4 days and 2 weeks): not subject to hydrolysis under the stated conditions |
| [CH3][Sn]([CH3])([CH3])[CH2]S(=O)(=O)c1ccccc1 [trimethylphenylsulfonylmethylstannane, phenylsulfonylmethyltrimethylstannane] |  |  |  |  |  |  | hydrolysis in humid air (NMR) ([6]; 81% humidity, 18-24.5° C., 4 days and 7 days): no unreacted starting Peterson compound |
| [CH3][Sn]([CH3])([CH3])[OH] [trimethyltin hydroxide] |  |  |  |  |  |  | Mite One-Day Residual % Control ([9]; 0.15 millimoles/liter): 7%; Mite One-Day Residual % Control ([9]; 0.3 millimoles/liter): 34%; Mite One-Day Residual % Control ([9]; 0.6 millimoles/liter): 9%; Tobacco Bud Worm % Control ([10]; 0.15 millimoles/liter): 16%; Tobacco Bud Worm % Feeding Reduced ([10]; 0.15 millimoles/liter): 50%; Tobacco Bud Worm % Control ([10]; 0.3 millimoles/liter): 16%; Tobacco Bud Worm % Feeding Reduced ([10]; 0.3 millimoles/liter): 69%; Tobacco Bud Worm % Control ([10]; 0.6 millimoles/liter): 66%; Tobacco Bud Worm % Feeding Reduced ([10]; 0.6 millimoles/liter): 81% |
| Trimethyltin p-toluenesulfinate | 98% | 100% | 100% | 100% | 0% | 100% |  |
